Series [1] concerns recombinant NL4-3 virus (Renilla luciferase in nef). As to the kind of experiment: HIV cell culture assay (antiviral activity, luciferase readout in MT-2 cells). In kind it is cell-based. The note with it: Renilla, NL43. The method, boiled down: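 MT-2 cells were infected for 4-5 days with 293T-derived recombinant NL4-3 reporter virus in the presence of serially diluted compound. Antiviral activity was quantified as luciferase activity using a live-cell substrate. EC50 was derived from the median effect equation.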

Series [2] is described as follows: Compound cytotoxicity, XTT-based colorimetric assay. In kind it is cell-based. The note with it: human; uninfected MT2 cells, day 4, XTT. The procedure:
Compound cytotoxicity and the corresponding CC50 values were determined using the same protocol as described in the antiviral assay except that uninfected cells were used. Cytotoxicity was assessed on day 4 in uninfected MT2 cells by using an XTT (2,3-bis[2-Methoxy-4-nitro-5-sulfophenyl]-2H-tetrazolium-5-carboxyanilide inner salt)-based colorimetric assay (Sigma-Aldrich, St Louis, Mo.).

What is called EC50 is the concentration giving half of the maximal effect. Broadly, the CC50 is the concentration at which the toxic effect on the cells reaches its halfway point. A low value points to greater toxicity to the cells.

As for `Cn1nc(NS(C)(=O)=O)c2c(Cl)ccc(-n3c([C@H](Cc4cc(F)cc(F)c4)NC(=O)Cn4nc(C(F)F)c5c4C(F)(F)[C@H]4C[C@@H]54)nc4cc(-c5ccn(CC6CC6)n5)ccc4c3=O)c21` (atropisomer, axis not shown; (P)) [Example 31, N—((S)-1-((3P)-3-(4-chloro-1-methyl-3-(methylsulfonamido)-1H-indazol-7-yl)-7-(1-(cyclopropylmethyl)-1H-pyrazol-3-yl)-4-oxo-3,4-dihydroquinazolin-2-yl)-2-(3,5-difluorophenyl)ethyl)-2-((3bS,4aR)-3-(difluoromethyl)-5,5-difluoro-3b,4,4a,5-tetrahydro-1H-cyclopropa[3,4]cyclopenta[1,2-c]pyrazol-1-yl)acetamide], the concentration for a half-maximal effect (EC50) in series [1] was 0.11 nM. In addition, the 50% cytotoxic concentration (CC50) at 4 days in series [2] is above 500 nM.
As for `Cc1cc(C#N)nc(-c2ccc3c(=O)n(-c4ccc(Cl)c5c(NS(C)(=O)=O)nn(C)c45)c([C@H](Cc4cc(F)cc(F)c4)NC(=O)Cn4nc(C(F)F)c5c4C(F)(F)[C@@H]4C[C@H]54)nc3c2)n1` (atropisomer, axis not shown; (P)) [Example 12, N—((S)-1-((3P)-3-(4-chloro-1-methyl-3-(methylsulfonamido)-1H-indazol-7-yl)-7-(4-cyano-6-methylpyrimidin-2-yl)-4-oxo-3,4-dihydroquinazolin-2-yl)-2-(3,5-difluorophenyl)ethyl)-2-((3bS,4aR)-3-(difluoromethyl)-5,5-difluoro-3b,4,4a,5-tetrahydro-1H-cyclopropa[3,4]cyclopenta[1,2-c]pyrazol-1-yl)acetamide], the concentration for a half-maximal effect (EC50) in series [1] stood at 0.087 nM. Also, in series [2], the 50% cytotoxic concentration (CC50) at 4 days was above 500 nM.
In the case of `Cn1nc(NS(C)(=O)=O)c2c(Cl)ccc(-n3c([C@H](Cc4cc(F)cc(F)c4)NC(=O)Cn4nc(C(F)F)c5c4C(F)(F)[C@@H]4C[C@H]54)nc4cc(-c5ccnc(S(C)(=O)=O)n5)ccc4c3=O)c21` (atropisomer, axis not shown; (P)) [Example 9, N—((S)-1-((3P)-3-(4-chloro-1-methyl-3-(methylsulfonamido)-1H-indazol-7-yl)-7-(2-(methylsulfonyl)pyrimidin-4-yl)-4-oxo-3,4-dihydroquinazolin-2-yl)-2-(3,5-difluorophenyl)ethyl)-2-((3bS,4aR)-3-(difluoromethyl)-5,5-difluoro-3b,4,4a,5-tetrahydro-1H-cyclopropa[3,4]cyclopenta[1,2-c]pyrazol-1-yl)acetamide], the 50% effective concentration (EC50) in series [1] was found to be 0.15 nM. The CC50 at 4 days in series [2] was above 500 nM.
Take `Cc1cc(-c2ccc3c(=O)n(-c4ccc(Cl)c5c(NS(C)(=O)=O)nn(C)c45)c([C@H](Cc4cc(F)cc(F)c4)NC(=O)Cn4nc(C(F)F)c5c4C(F)(F)[C@@H]4C[C@H]54)nc3c2)nn1CC(C)(F)F` (atropisomer, axis not shown; (P)) [Example 68, N—((S)-1-((3P)-3-(4-chloro-1-methyl-3-(methylsulfonamido)-1H-indazol-7-yl)-7-(1-(2,2-difluoropropyl)-5-methyl-1H-pyrazol-3-yl)-4-oxo-3,4-dihydroquinazolin-2-yl)-2-(3,5-difluorophenyl)ethyl)-2-((3bS,4aR)-3-(difluoromethyl)-5,5-difluoro-3b,4,4a,5-tetrahydro-1H-cyclopropa[3,4]cyclopenta[1,2-c]pyrazol-1-yl)acetamide]: the concentration for a half-maximal effect (EC50) in series [1] was found to be 0.096 nM. Besides, in series [2], the CC50 at 4 days was above 100 nM.

Source of the values: US20230013823A1, “INHIBITORS OF HUMAN IMMUNODEFICIENCY VIRUS REPLICATION” (VIV HEALTHCARE UK (No. 5) LIMITED, priority 2019, published 2023).
